US20250017927A1, “PHARMACEUTICAL COMPOSITION AND USE THEREOF” (SHANGHAI ALLIST PHARMACEUTICALS CO., LTD., priority 2021, published 2025)

Tests used:
[1] = tested on: Ba/F3 EGFR G719S; assay: Proliferation inhibition, CellTiter Glo, Ba/F3 EGFR G719S; type: cell-based, mouse; settings: for IC50: Mus musculus, Ba/F3 EGFR G719S stably transfected cells, 72 hours
From the text: (§1) The proliferation inhibition activity of the compound (furmonertinib mesilate) on four cells of Ba/F3 EGFR G719S, Ba/F3 EGFR G724S, Ba/F3 EGFR S768I, and Ba/F3 EGFR L861Q stably expressing EGFR rare mutation proteins, one cell of Ba/F3 EGFR G719S/T263P stably expressing EGFR double mutation proteins, and three cells of Ba/F3 ERBB2 A775_G776insYVMA, Ba/F3 ERBB2 V777_G778insGC, and Ba/F3 ERBB2 P780_Y781insGSP stably expressing different ERBB2 exon 20 insertion mutation proteins in mouse pro-B cells Ba/F3 in vitro was determined by the CellTiter Glo method.
(§2) Cell source: Ba/F3 EGFR G719S, Ba/F3 EGFR G724S, Ba/F3 EGFR S768I, Ba/F3 EGFR L861Q, Ba/F3 EGFR G719S/T263P, Ba/F3 ERBB2 A775_G776insYVMA, Ba/F3 ERBB2 V777_G778insGC, Ba/F3 ERBB2 P780_Y781insGSP cells were provided by KYinno Biotechnology (Beijing) Co., Ltd.
(§3) Ba/F3 EGFR G719S, Ba/F3 EGFR G724S, Ba/F3 EGFR S768I, Ba/F3 EGFR L861Q, Ba/F3 EGFR G719S/T263P, Ba/F3 ERBB2 A775_G776insYVMA, Ba/F3 ERBB2 V777_G778insGC, Ba/F3 ERBB2 P780_Y781insGSP cells were cultivated in RPMI1640 complete culture medium containing 10% fetal bovine serum. […]
(§4) The CellTiter-Glo reagent (a luciferase ATP bioluminescence detection reagent, commercially available from Promega) was thawed, the 96-well plates inoculated with the cells were taken out from the CO2 constant temperature incubator, and equilibrated to room temperature (about 30 minutes), 100 μL CellTiter-Glo reagent was added to each well, the cells were lyzed by shaking on an orbital shaker for 5 minutes, […] at room temperature for 20 minutes to wait for the luminescence intensity to stabilize, then the luminescence intensity (Lum) was determined with a microplate reader. The cell survival rate at each concentration of the compound was calculated.
(§5) The data were analyzed using GraphPad Prism 7.0 software, fitted with nonlinear S-curve regression to give a dose-effect curve, and IC50 values were calculated therefrom, as shown in Table 1.

[2] = tested on: Ba/F3 EGFR G724S; assay: Proliferation inhibition, CellTiter Glo, Ba/F3 EGFR G724S; type: cell-based, mouse; settings: for IC50: Mus musculus, Ba/F3 EGFR G724S stably transfected cells, 72 hours
From the text: as §1, §2, §3, §4, §5

[3] = tested on: Ba/F3 EGFR S768I; assay: Proliferation inhibition, CellTiter Glo, Ba/F3 EGFR S768I; type: cell-based, mouse; settings: for IC50: Mus musculus, Ba/F3 EGFR S768I stably transfected cells, 72 hours
From the text: as §1, §2, §3, §4, §5

[4] = tested on: Ba/F3 EGFR L861Q; assay: Proliferation inhibition, CellTiter Glo, Ba/F3 EGFR L861Q; type: cell-based, mouse; settings: for IC50: Mus musculus, Ba/F3 EGFR L861Q stably transfected cells, 72 hours
From the text: as §1, §2, §3, §4, §5

[5] = tested on: Ba/F3 EGFR G719S/T263P; assay: Proliferation inhibition, CellTiter Glo, Ba/F3 EGFR G719S/T263P; type: cell-based, mouse; settings: for IC50: Mus musculus, Ba/F3 EGFR G719S/T263P stably transfected cells, 72 hours
From the text: as §1, §2, §3, §4, §5

[6] = tested on: Ba/F3 ERBB2 A775_G776insYVMA; assay: Proliferation inhibition, CellTiter Glo, Ba/F3 ERBB2 A775_G776insYVMA; type: cell-based, mouse; settings: for IC50: Mus musculus, BaF3, Ba/F3 ERBB2 A775_G776insYVMA stably transfected cells, 72 hours
From the text: as §1, §2, §3, §4, §5

[7] = tested on: Ba/F3 ERBB2 V777_G778insGC; assay: Proliferation inhibition, CellTiter Glo, Ba/F3 ERBB2 V777_G778insGC; type: cell-based, mouse; settings: for IC50: Mus musculus, BaF3, Ba/F3 ERBB2 V777_G778insGC stably transfected cells, 72 hours
From the text: as §1, §2, §3, §4, §5

[8] = tested on: Ba/F3 ERBB2 P780_Y781insGSP; assay: Proliferation inhibition, CellTiter Glo, Ba/F3 ERBB2 P780_Y781insGSP; type: cell-based, mouse; settings: for IC50: Mus musculus, BaF3, Ba/F3 ERBB2 P780_Y781insGSP stably transfected cells, 72 hours
From the text: as §1, §2, §3, §4, §5

[9] = tested on: Ba/F3 ERBB2 V777_G778insGC xenograft; assay: Anti-tumor effect in Ba/F3 ERBB2 V777_G778insGC (KC-1410) cell xenograft model; type: in vivo; settings: for anti-tumor activity: B-NDG mice
From the text: This study was used for evaluate the anti-tumor efficacy of three compounds alone in the female (B-NDG) immune deficiency mice bearing tumors of Ba/F3 ERBB2 V777_G778insGC engineered cells.
Experimental animals: B-NDG mice, female, 6-8 weeks, and weighing 18-20 g.
Animal modeling and random grouping: Ba/F3 ERBB2 V777_G778insGC cells were cultivated, cells were collected, and re-suspended and counted in serum-free medium, the re-suspended cells with the addition of a matrigel at 1:1 were subcutaneous inoculated at 1×10^6 cells/0.1 mL in B-NDG mice. When the average tumor volume was about 80-120 mm^3, the animals were randomly grouped into four experiment groups according to the tumor size. Each group contained 12 mice.
The experimental scheme: B-NDG mice were subcutaneously inoculated with Ba/F3 ERBB2 V777_G778insGC cells to establish a cell-line-derived xenograft model.
The curves for the tumor volume change of four experimental groups were shown in FIG. 3, and the curves for the body weight change of four experimental groups were shown in FIG. 4.

[10] = orally once per day, 20 mg-240 mg; cited from earlier work
[11] = tested on: EGFR T790M positive advanced non-small cell lung cancer; settings: oral 80 mg daily dose, patients with progressive disease after prior systematic anti-tumor therapy; cited from earlier work
[12] = tested on: Ba/F3 ERBB2 A775_G776insYVMA subcutaneous xenograft; assay: Anti-tumor effect in Ba/F3 ERBB2 A775_G776insYVMA CDX tumor model; settings: 30 mg/kg oral once per day for two weeks
From the text: Experimental animals: BALB/c nude mice, female, 8-9 weeks (mouse week-old when tumor cells were inoculated), and weighing 13.7-17.7 g, purchased from the Shanghai branch of Beijing Vital River Laboratory Animal Technology Co., Ltd.
Animal modeling and random grouping: Ba/F3 ERBB2 A775_G776insYVMA cells were cultivated, amplified to two T175 cm^2 culture flasks, cells were collected, and resuspended and counted in serum-free medium DMEM with the addition of a matrix gel at 1:1, and inoculated at 2×10^6 cells/0.1 mL in Balb/c nude mouse right front scapular subcutaneous. When the average tumor volume was about 160 mm^3, the animals were randomly grouped into three experiment groups according to the tumor size. Each group contained 6 mice. The grouping day was defined as Day 0, i.e., DO.
The experimental scheme: BALB/c nude mice were subcutaneously inoculated with Ba/F3 ERBB2 A775_G776insYVMA cells, and a cell line heterograft tumor model was established. The experiment was divided into 30 mg/kg group of AZD9291, 30 mg/kg group of furmonertinib mesilate and a vehicle control group, wherein each group contained 6 animals, orally administered with the administration volume of 10 uL/g, and the vehicle control group was administered with the same amount of vehicle, the administration was carried out once per day and lasted for two weeks. During the whole experiment, the body weight and the tumor sizes of the mice were measured twice each week, and whether or not the presence of toxic reactions was observed.
Tumor Volume (TV) was calculated by: TV=½×a×b×b, where a and b represented the length and the width of tumor, respectively.

With `C=CC(=O)Nc1cc(Nc2nccc(-c3cn(C)c4ccccc34)n2)c(OC)cc1N(C)CCN(C)C` [AZD9291, reference compound] the IC50 [1] was 68 nM, the IC50 [2] was 139 nM and the IC50 [3] was 137 nM. The IC50 [4] was 41 nM, the IC50 [5] was 191 nM and the IC50 [6] was 489 nM. For the same molecule, the IC50 [7] was 77 nM and the IC50 [8] was 96 nM.

For `C=CC(=O)Nc1cc(Nc2nccc(-c3cn(C)c4ccccc34)n2)c(OCC(F)(F)F)nc1N(C)CCN(C)C` [furmonertinib mesilate, N-{2-{[2-(dimethylamino)ethyl](methyl)amino}-6-(2,2,2-trifluoroethoxy)-5-{[4-(1-methyl-1H-indol-3-yl)pyrimidin-2-yl]amino}pyridin-3-yl}acrylamide], the proliferation inhibition activity ([1]; Ba/F3 EGFR G719S, result in words) was “good proliferation inhibition activity”, the IC50 [1] was 19 nM and the proliferation inhibition activity ([2]; Ba/F3 EGFR G724S, result in words) was “good proliferation inhibition activity”. For the same molecule, the IC50 [2] was 35 nM, the proliferation inhibition activity ([3]; Ba/F3 EGFR S768I, result in words) was “good proliferation inhibition activity” and the IC50 [3] was 33 nM. The proliferation inhibition activity ([4]; Ba/F3 EGFR L861Q, result in words) was “good proliferation inhibition activity”, the IC50 [4] was 13 nM and the proliferation inhibition activity ([5]; Ba/F3 EGFR G719S/T263P, result in words) was “good proliferation inhibition activity”. For the same molecule, the IC50 [5] was 37 nM, the proliferation inhibition activity ([6]; Ba/F3 ERBB2 A775_G776insYVMA, result in words) was “good proliferation inhibition activity” and the IC50 [6] was 118 nM. For the same molecule, the proliferation inhibition activity ([7]; Ba/F3 ERBB2 V777_G778insGC, result in words) was “good proliferation inhibition activity”, the IC50 [7] was 25 nM and the proliferation inhibition activity ([8]; Ba/F3 ERBB2 P780_Y781insGSP, result in words) was “good proliferation inhibition activity”. The IC50 [8] was 33 nM, the anti-tumor activity ([9]; 15 mg/kg oral once per day for two weeks) was “moderate anti-tumor activity” and the anti-tumor activity ([9]; 30 mg/kg oral once per day for two weeks) was “extremely significant anti-tumor activity”. For the same molecule, the anti-tumor activity ([9]; 50 mg/kg oral once per day for two weeks) was “extremely significant anti-tumor activity”, the “effect on the body weight of mice” value ([9]; 15, 30 and 50 mg/kg groups) was “little effect on the body weight” and the safety ([9]; 15, 30 and 50 mg/kg groups) was “good safety”. The “adverse events of subjects” value [10] was “mild or moderate”, the dose-limiting toxicity [10] was “does not occur” and the dose-related toxic reaction [10] was “does not occur”. For the same molecule, the tolerance and safety [10] was “good”, the anti-tumor effect [11] was “relatively good anti-tumor effect” and the “effect on the body weight of nude mice” value [12] was “less effect on the body weight”. For the same molecule, the safety [12] was “better safety” and the anti-tumor effect ([12]; BALB/c female nude mice) was “good anti-tumor effect”.
